Active and inactive are the calls of the source. The rule behind the calls is not given here.
System: CCRIS mutagenicity, Ames/micronucleus/aberration tests
Experiment: CCRIS mutagenicity studies
[1] = Test System: AMES SALMONELLA TYPHIMURIUM, Strain/Indicator: TA100, Metabolic Activation: NONE, Method: PREINCUBATION
[2] = Test System: AMES SALMONELLA TYPHIMURIUM, Strain/Indicator: TA98, Metabolic Activation: NONE, Method: STANDARD PLATE
[3] = Test System: AMES SALMONELLA TYPHIMURIUM, Strain/Indicator: TA98, Metabolic Activation: RAT, LIVER, S-9, AROCLOR 1254, Method: STANDARD PLATE
[4] = Test System: AMES SALMONELLA TYPHIMURIUM, Strain/Indicator: TA100, Metabolic Activation: NONE, Method: STANDARD PLATE
[5] = Test System: AMES SALMONELLA TYPHIMURIUM, Strain/Indicator: TA100, Metabolic Activation: RAT, LIVER, S-9, AROCLOR 1254, Method: STANDARD PLATE

CCC/C=C/C=O
mutagenic call (Test System: AMES SALMONELLA TYPHIMURIUM, Strain/Indicator: TA97A, Metabolic Activation: NONE, Method: DESICCATOR): inactive; negative | mutagenic call (Test System: AMES SALMONELLA TYPHIMURIUM, Strain/Indicator: TA97A, Metabolic Activation: S-9, Method: DESICCATOR): inactive; negative | mutagenic call (Test System: AMES SALMONELLA TYPHIMURIUM, Strain/Indicator: TA98, Metabolic Activation: NONE, Method: DESICCATOR): inactive; negative | mutagenic call (Test System: AMES SALMONELLA TYPHIMURIUM, Strain/Indicator: TA100, Metabolic Activation: NONE, Method: DESICCATOR): inactive; negative | mutagenic call [1]: inactive; negative | mutagenic call (Test System: AMES SALMONELLA TYPHIMURIUM, Strain/Indicator: TA100, Metabolic Activation: NONE, Method: PREINCUBATION (THREEFOLD CELL DENSITY)): active; positive | mutagenic call (Test System: AMES SALMONELLA TYPHIMURIUM, Strain/Indicator: TA100, Metabolic Activation: RAT, LIVER, S-9, AROCLOR 1254, Method: PREINCUBATION): inactive; negative | mutagenic call (Test System: AMES SALMONELLA TYPHIMURIUM, Strain/Indicator: TA100, Metabolic Activation: RAT, LIVER, S-9, AROCLOR 1254, Method: PREINCUBATION (THREEFOLD CELL DENSITY)): active; positive | mutagenic call (Test System: AMES SALMONELLA TYPHIMURIUM, Strain/Indicator: TA100, Metabolic Activation: S-9, Method: DESICCATOR): inactive; negative | mutagenic call (Test System: AMES SALMONELLA TYPHIMURIUM, Strain/Indicator: TA102, Metabolic Activation: S-9, Method: DESICCATOR): inactive; negative | mutagenic call (Test System: AMES SALMONELLA TYPHIMURIUM, Strain/Indicator: TA104, Metabolic Activation: NONE, Method: DESICCATOR): inactive; negative | mutagenic call (Test System: AMES SALMONELLA TYPHIMURIUM, Strain/Indicator: TA104, Metabolic Activation: NONE, Method: PREINCUBATION): active; positive | mutagenic call (Test System: AMES SALMONELLA TYPHIMURIUM, Strain/Indicator: TA104, Metabolic Activation: S-9, Method: DESICCATOR): inactive; negative | mutagenic call (Test System: CHINESE HAMSTER V-79, Strain/Indicator: V-79/6-THIOGUANINE, Metabolic Activation: NONE, Method: STANDARD PLATE): active; positive | mutagenic call (Test System: CHINESE HAMSTER V-79, Strain/Indicator: V-79/OUABAIN, Metabolic Activation: NONE, Method: STANDARD PLATE): inactive; negative

CCN(CCCCO)N=O
mutagenic call (Test System: AMES SALMONELLA TYPHIMURIUM, Strain/Indicator: TA1535, Metabolic Activation: RAT, LIVER, S-9, KC500 OR PHENOBARBITAL, Method: LIQUID SUSPENSION): active; positive

C=CCc1ccccc1OCC(O)CNC(C)C (stereo not drawn)
mutagenic call [2]: inactive; negative | mutagenic call [3]: inactive; negative | mutagenic call [4]: inactive; negative | mutagenic call [5]: inactive; negative

O=C(/C=C/c1ccc(O)c(O)c1)O[C@H](Cc1ccc(O)c(O)c1)C(=O)O
mutagenic call (End Point: In vivo micronucleus, Species: Mouse, Strain/Sex: Swiss/Male, Route: Oral): inactive; negative

CC(=O)N(O)c1ccccc1C
mutagenic call [2]: inactive; negative | mutagenic call [3]: active; positive | mutagenic call [4]: inactive; negative | mutagenic call [5]: inactive; negative

ONc1ccc(Oc2ccccc2)cc1
mutagenic call [2]: active; positive | mutagenic call [4]: active; positive

c1ccc2c(OC[C@H]3CO3)cccc2c1
mutagenic call [4]: active; positive

CC(C)c1ccccc1O
mutagenic call (Test System: AMES SALMONELLA TYPHIMURIUM, Strain/Indicator: TA98, Metabolic Activation: NONE, Method: PREINCUBATION): inactive; negative | mutagenic call (Test System: AMES SALMONELLA TYPHIMURIUM, Strain/Indicator: TA98, Metabolic Activation: RAT LIVER S-9, PHENOBARBITAL AND BETA-NAPHTHOFLAVONE, Method: PREINCUBATION): inactive; negative | mutagenic call [1]: inactive; negative | mutagenic call (Test System: AMES SALMONELLA TYPHIMURIUM, Strain/Indicator: TA100, Metabolic Activation: RAT LIVER S-9, PHENOBARBITAL AND BETA-NAPHTHOFLAVONE, Method: PREINCUBATION): inactive; negative | mutagenic call (Test System: AMES SALMONELLA TYPHIMURIUM, Strain/Indicator: TA1535, Metabolic Activation: NONE, Method: PREINCUBATION): inactive; negative | mutagenic call (Test System: AMES SALMONELLA TYPHIMURIUM, Strain/Indicator: TA1535, Metabolic Activation: RAT LIVER S-9, PHENOBARBITAL AND BETA-NAPHTHOFLAVONE, Method: PREINCUBATION): inactive; negative | mutagenic call (Test System: AMES SALMONELLA TYPHIMURIUM, Strain/Indicator: TA1537, Metabolic Activation: NONE, Method: PREINCUBATION): inactive; negative | mutagenic call (Test System: AMES SALMONELLA TYPHIMURIUM, Strain/Indicator: TA1537, Metabolic Activation: RAT LIVER S-9, PHENOBARBITAL AND BETA-NAPHTHOFLAVONE, Method: PREINCUBATION): inactive; negative | mutagenic call (Test System: E.COLI, Strain/Indicator: WP2UVRA/PKM101, Metabolic Activation: NONE, Method: PREINCUBATION): inactive; negative | mutagenic call (Test System: E.COLI, Strain/Indicator: WP2UVRA/PKM101, Metabolic Activation: RAT LIVER S-9, PHENOBARBITAL AND BETA-NAPHTHOFLAVONE, Method: PREINCUBATION): inactive; negative

Reference: PubChem BioAssay AID1259407 (Chemical Carcinogenesis Research Information System (CCRIS), 2018)
